Results on 5 compounds are retold here after ChEMBL document CHEMBL1201862, “PubChem BioAssay data set” (2004).

What is called AC50 is the concentration giving half of the maximal activity seen. One may read the IC50 as the concentration needed to halve the response being measured.

Several values for one entry are separate records, joined by “and”; a condition that tells them apart may be missing. Equal values may be shown once. Activity calls are given as the source filed them. Unless noted, the calls are words filed in the database; no cut-off is given here.

Experiment [1] in a line: growth induction of Burl-1 ts yeast mutant, dose response, counter-screen for SUMOylation pathway inhibitor project, whole organism, S. cerevisiae, luminescence (AID 463199). It counts as functional.
Experiment [2] can be described thus: cytotoxicity in HMLE control line with eGFP shRNA, dose response, counter-screen for HMLE_sh_ECad selective toxicity project, cell-based, HMLE_sh_eGFP, luminescence (AID 463074).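 Further: HMLE human mammary epithelial cells expressing control shRNA against eGFP.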 It counts as functional, Homo sapiens. In general terms: Counterscreens check selectivity or assay interference.
The nature of experiment [3]: Luminescence Cell-Based Dose Retest to Confirm Inhibitors of Cancer Stem Cells. [Related pubchem assays (depositor defined):AID2717, AID2721]. It counts as functional. To be noted: Homo sapiens.
A short description of experiment [4]: A Cell-Based Confirmatory Screen for Compounds that Inhibit VEEV, TC-83 (8). It counts as functional.
Experiment [5] can be described thus: A Cell-Based Confirmatory Screen for Compounds that Inhibit VEEV, TC-83 (3). It counts as functional.
Experiment [6] is described as follows: A Cell-Based Confirmatory Screen for Compounds that Inhibit VEEV, TC-83 (6). It counts as functional.
A short description of experiment [7]: A Cell-Based Counter Screen testing Compounds that Inhibit VEEV TC-83, in strain KU V3526. It counts as functional.
Experiment [8] is described as follows: A Cell-Based Confirmatory Screen for Compounds that Inhibit VEEV, TC-83 (7). It counts as functional.
The test system of the next experiment is Vero. The experiment in a line: cells. It counts as functional, cell-based. To be noted: Chlorocebus sabaeus.
A short description of experiment [9]: A Cell-Based Confirmatory Screen for Compounds that Inhibit VEEV, TC-83 (2). It counts as functional.
Experiment [10] in a line: A Cell-Based Confirmatory Screen for Compounds that Inhibit VEEV TC-83 (4). It counts as functional.
For another experiment, the system named is Escherichia coli. The experiment in a line: microbe, parasite or virus in culture.
Experiment [11] deals with Lysine-specific demethylase 4C (Homo sapiens, UniProt Q9H3R0). The experiment in a line: GASC-1 (JMJD2C) histone demethylase inhibitors, dose response, biochemical, DELFIA europium, cherry-picked samples (AID 488835). It counts as functional.
Lysine-specific demethylase 4C, sequence (Q9H3R0 whole entry): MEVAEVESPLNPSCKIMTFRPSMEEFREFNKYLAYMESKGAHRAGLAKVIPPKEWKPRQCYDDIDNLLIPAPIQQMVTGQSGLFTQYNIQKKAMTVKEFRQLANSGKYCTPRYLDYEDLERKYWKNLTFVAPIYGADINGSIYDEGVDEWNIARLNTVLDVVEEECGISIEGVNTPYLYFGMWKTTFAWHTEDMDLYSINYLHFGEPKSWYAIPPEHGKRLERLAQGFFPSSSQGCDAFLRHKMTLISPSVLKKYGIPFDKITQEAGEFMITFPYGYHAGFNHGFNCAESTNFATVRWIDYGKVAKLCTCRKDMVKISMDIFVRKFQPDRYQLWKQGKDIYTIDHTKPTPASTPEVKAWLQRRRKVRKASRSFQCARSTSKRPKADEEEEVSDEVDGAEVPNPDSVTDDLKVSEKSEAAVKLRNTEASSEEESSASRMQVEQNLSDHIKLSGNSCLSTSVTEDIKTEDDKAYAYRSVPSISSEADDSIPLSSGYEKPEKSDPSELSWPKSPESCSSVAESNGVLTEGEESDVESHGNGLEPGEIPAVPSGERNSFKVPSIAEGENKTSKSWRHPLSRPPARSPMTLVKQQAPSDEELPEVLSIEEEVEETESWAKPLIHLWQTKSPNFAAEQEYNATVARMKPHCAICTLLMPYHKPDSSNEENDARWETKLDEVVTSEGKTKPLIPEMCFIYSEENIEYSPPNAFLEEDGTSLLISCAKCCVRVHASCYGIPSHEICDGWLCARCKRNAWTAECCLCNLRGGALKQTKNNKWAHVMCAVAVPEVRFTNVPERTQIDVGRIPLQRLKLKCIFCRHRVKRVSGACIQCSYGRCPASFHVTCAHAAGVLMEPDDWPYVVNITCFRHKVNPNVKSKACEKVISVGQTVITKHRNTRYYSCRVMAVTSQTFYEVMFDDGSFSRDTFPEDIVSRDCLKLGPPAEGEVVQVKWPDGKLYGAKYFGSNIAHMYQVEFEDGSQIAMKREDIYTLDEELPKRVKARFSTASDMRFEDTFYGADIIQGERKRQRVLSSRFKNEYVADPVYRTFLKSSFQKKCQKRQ

Turning to `O=C(CNC(=O)c1ccco1)OCC(=O)c1cccc2ccccc12`, in [1], the AC50 is 54.6 µM (active).
`COc1ccc(C(=O)NNc2ccccc2)cc1`: the AC50 in experiment [2] was 21.4 µM (active); in [3] it was 9.98 µM (active).
On to `CCN1CCN(Cc2nc3ccc([N+](=O)[O-])cc3c(=O)n2-c2ccccc2F)CC1`, for which the IC50 was 810 nM (active) and 695 nM (active) in [4]; < 0.96 µM (active) in experiment [5]; 1.01 µM (active) in [6]; 0.97 µM (active) in [7]; 0.81 µM (active) in [8]; 1.91 µM (active) in the experiment on Vero. Also, the results for the IC50 in [9] and in [10] were 0.97 µM (active) and 0.67 µM (active), respectively.
Consider `COC(C(=O)Nc1ccnn1C1CCN(C(=O)c2ccc(C=O)cc2)CC1)c1ccccc1` (stereo not drawn), for which the half-maximal activity concentration (AC50) in the experiment with Escherichia coli was 26.2 µM (active).
As to `Cc1ccc(NN=Nc2nc3c(=O)n(C)c(=O)n(C)c3[nH]2)cc1`, the AC50 in [11] was 24.7 µM (active).
